For assay [1], the target named is T1, human dopamine D3 receptors (Homo sapiens, UniProt P35462).
T1 construct: expressed in transfected cells
Kind of assay: Dopamine D3 receptor binding, displacement of [125I]-iodosulpride. To be noted: for Ki: membranes of HEK-293 cells stably expressing human D3, 0.1 nM [125I]-iodosulpride, 25° C., 60 minutes; for Ki(D2)*/Ki(D3)*: selectivity ratio of the receptor binding constants D2 over D3. The method, then: (§1) The substance to be tested was either dissolved in methanol/Chremophor® (BASFAG) or in dimethyl sulfoxide and then diluted with water to the desired concentration.
(§2) Each assay mixture was run in triplicate.
The incubation buffer contained 50 mM tris, 120 mM NaCl, 5 mM KCl, 2 mM CaCl2, 2 mM MgCl2 and 0.1% bovine serum albumin, 10 μM quinolone and 0.1% ascorbic acid (prepared fresh daily). The buffer was adjusted to pH 7.4 with HCl.
(§3) After having been incubated at 25° C. for 60 minutes, the assay mixtures were filtered through a Whatman GF/B glass fiber filter under vacuum using a cell collecting device. The filters were transferred to scintillation viols using a filter transfer system. After 4 ml of Ultima Gold® (Packard) have been added, the samples were shaken for one hour and the radioactivity was then counted in a Beta-Counter (Packard, Tricarb 2000 or 2200CA). The cpm values were converted into dpm using a standard quench series and the program belonging to the instrument.
(§4) The inhibition curves were analyzed by means of iterative nonlinear regression analysis using the Statistical Analysis System (SAS) which is similar to the “LIGAND” program described by Munson and Rodbard.
(§5) The results of the receptro binding studies are expressed as receptor binding constants Ki(D2) and Ki(D3), respectively, as herein before described, and given in table 6.
A general note: Loss of bound radioactivity is the signal in a displacement assay; it reports binding, not function.

The target of assay [2] is T2, human dopamine D2L receptors (long isoform) (Homo sapiens, UniProt P14416).
T2 construct: expressed in transfected cells
Kind of assay: Dopamine D2L receptor binding, displacement of [125I] iodospiperone. To be noted: membranes of HEK-293 cells stably expressing human D2L; 0.01 nM [125I] iodospiperone; 25° C., 60 minutes; read-out: Ki(D2)*. The method, then: as §1, §2
The incubation buffer contained 50 mM tris, 120 mM NaCl, 5 mM KCl, 2 mM CaCl2, 2 mM MgCl2 and 0.1% bovine serum albumin. The buffer was adjusted to pH 7.4 with HCl.
as §3, §4, §5

Where a name gives a salt, the structure may show the parent alone.

T1 sequence (P35462 whole entry): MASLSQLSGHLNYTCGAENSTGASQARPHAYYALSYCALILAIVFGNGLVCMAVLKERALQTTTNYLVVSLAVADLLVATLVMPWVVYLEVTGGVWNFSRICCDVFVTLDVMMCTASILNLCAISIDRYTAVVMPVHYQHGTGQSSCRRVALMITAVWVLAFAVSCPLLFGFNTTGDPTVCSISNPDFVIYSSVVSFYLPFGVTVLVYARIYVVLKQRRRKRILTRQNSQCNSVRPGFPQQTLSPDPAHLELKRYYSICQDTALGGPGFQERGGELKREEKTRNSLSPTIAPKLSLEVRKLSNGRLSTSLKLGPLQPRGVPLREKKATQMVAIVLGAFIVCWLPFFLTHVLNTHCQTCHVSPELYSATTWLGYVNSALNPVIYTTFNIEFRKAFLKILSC
T2 sequence (P14416 whole entry, canonical isoform): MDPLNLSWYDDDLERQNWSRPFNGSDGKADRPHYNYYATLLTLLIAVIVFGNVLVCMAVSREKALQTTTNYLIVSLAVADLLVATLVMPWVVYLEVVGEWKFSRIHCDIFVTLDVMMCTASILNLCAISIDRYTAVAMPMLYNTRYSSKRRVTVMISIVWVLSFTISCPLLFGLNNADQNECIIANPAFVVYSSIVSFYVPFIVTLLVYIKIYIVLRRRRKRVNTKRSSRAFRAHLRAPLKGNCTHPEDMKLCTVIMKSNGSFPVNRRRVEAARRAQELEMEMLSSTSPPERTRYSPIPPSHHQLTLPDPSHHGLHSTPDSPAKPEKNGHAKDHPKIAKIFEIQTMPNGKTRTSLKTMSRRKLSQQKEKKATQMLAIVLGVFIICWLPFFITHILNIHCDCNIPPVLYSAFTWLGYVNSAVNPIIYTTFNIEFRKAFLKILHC

By Ki is commonly meant a dissociation constant, usually derived from enzyme kinetics or from competition with a known ligand. On to `CCCN1CC[C@@H](c2ccc(NS(=O)(=O)c3ccc(C4CCCC4)cc3)cc2)C1` [Example 37, 4-Cyclopentyl-N-[4-(S)-1-propyl-pyrrolidin-3-yl)-phenyl]-benzenesulfonamide hydrochloride], for which, in assay [1], the Ki is 0.15 nM and the “Ki(D2)*/Ki(D3)*” value is reported as 22. Moreover, the Ki in assay [2] came to 3.25 nM.

With `CC(C)c1ccc(S(=O)(=O)Nc2ccc([C@@H]3CCN(CCCF)C3)cc2)cc1` [Example 38, 4-Isopropyl-N-[4-((S)-1-(3-fluoro-propyl)-pyrrolidin-3-yl)-phenyl]-benzenesulfonamide], in assay [1], the affinity corresponds to a Ki of 0.29 nM and the “Ki(D2)*/Ki(D3)*” value is 21. Besides, in assay [2], the Ki is 6.3 nM.

For the molecule `CCCCOc1ccc(S(=O)(=O)Nc2ccc([C@@H]3CCN(CCC)C3)cc2)cc1` [Example 40, 4-Butyloxy-N-[4-((S)-1-propyl-pyrrolidin-3-yl)-phenyl]-benzenesulfonamide], in assay [1], the Ki was 0.46 nM and the “Ki(D2)*/Ki(D3)*” value came to 40. The Ki in assay [2] was found to be 18.2 nM.

For the molecule `CCCN1CC[C@@H](c2ccc(NS(=O)(=O)c3ccc(C4CC4(F)F)cc3)cc2)C1` (stereo partly drawn) [Example 41, 4-(2,2-Difluorocyclopropyl)-N-[4-((S)-1-propyl-pyrrolidin-3-yl)-phenyl]-benzenesulfonamide], in assay [1], the Ki was determined as 0.44 nM and the “Ki(D2)*/Ki(D3)*” value came out at 30. Moreover, the Ki in assay [2] came out at 13.5 nM.

As for `CCCN1CC(c2ccc(NS(=O)(=O)c3ccc(C(C)C)cc3)cn2)C1` [Example 46, 4-Isopropyl-N-[6-(1-propyl-azetidin-3-yl)-pyridin-3-yl]-benzenesulfonamide], in assay [1], the affinity corresponds to a Ki of 49 nM and the “Ki(D2)*/Ki(D3)*” value came out at 37. The Ki in assay [2] was determined as 1830 nM.

Consider `CCCN1CC(c2ccc(NS(=O)(=O)c3ccc(C(C)C)cc3)cc2)C1` [Example 48, 4-Isopropyl-N-[4-(1-propyl-azetidin-3-yl)-phenyl]-benzene sulfonamide], for which the Ki in assay [1] stood at 2.1 nM; in assay [2], 137 nM. Also, the “Ki(D2)*/Ki(D3)*” value in assay [1] worked out at 65.

Regarding `CCCN1CC(c2ccc(NS(=O)(=O)c3ccc(OC(F)(F)F)cc3)cc2)C1` [Example 49, N-[4-(1-Propyl-azetidin-3-yl)-phenyl]-4-trifluoromethoxybenzene sulfonamide], in assay [1], the Ki amounted to 46 nM and the “Ki(D2)*/Ki(D3)*” value came out at 39. In addition, the Ki in assay [2] worked out at 1810 nM.

As for `CC(C)c1ccc(S(=O)(=O)Nc2ccc([C@@H]3CCN(CCCO)C3)cc2)cc1` [Example 53, N-{4-[(S)-1-(3-Hydroxy-propyl)-pyrrolidin-3-yl]-phenyl}-4-isopropyl-benzenesulfonamide], in assay [1], the Ki stood at 0.41 nM and the “Ki(D2)*/Ki(D3)*” value worked out at 14. For the same molecule, in assay [2], the Ki came out at 5.85 nM.

On to `CCCN1CC[C@@H](c2ccc(NS(=O)(=O)c3ccc(C4CCC4)cc3)cc2)C1` [Example 54, 4-Cyclobutyl-N-[4-((S)-1-propyl-pyrrolidin-3-yl)-phenyl]-benzenesulfonamide], for which the Ki was found to be 0.32 nM in assay [1] and 8.73 nM in assay [2]. Further, in assay [1], the “Ki(D2)*/Ki(D3)*” value was determined as 27.

With `CCCN1CC(c2ccc(NS(=O)(=O)c3ccc(-c4cnco4)cc3)cc2)C1` [Example 55, 4-Oxazol-5-yl-N-[4-(1-propyl-azetidin-3-yl)-phenyl]-benzenesulfonamide], in assay [1], the Ki was 7.11 nM and the “Ki(D2)*/Ki(D3)*” value is given as 165. The Ki in assay [2] was 1170 nM.

For `CCCN1CC(c2ccc(NS(=O)(=O)c3ccc(CCF)cc3)cc2)C1` [Example 56, 4-(2-Fluoro-ethyl)-N-[4-(1-propyl-azetidin-3-yl)-phenyl]-benzenesulfonamide], in assay [1], the Ki amounted to 24.4 nM and the “Ki(D2)*/Ki(D3)*” value is given as 109. For the same molecule, the Ki in assay [2] is 2660 nM.

Take `CCCN1CC(c2ccc(NS(=O)(=O)c3ccc(CCCF)cc3)cc2)C1` [Example 57, 4-(3-Fluoro-propyl)-N-[4-(1-propyl-azetidin-3-yl)-phenyl]-benzenesulfonamide]: in assay [1], the Ki came to 7.18 nM and the “Ki(D2)*/Ki(D3)*” value was 123. Further, the Ki in assay [2] is 880 nM.

Consider `CCCN1CC(c2ccc(NS(=O)(=O)c3ccc(Br)cc3)cc2)C1` [Example 58, 4-Bromo-N-[4-(1-propyl-azetidin-3-yl)-phenyl]-benzenesulfonamide], for which the Ki was 39.8 nM in assay [1] and 2940 nM in assay [2].

Regarding `CCCN1CC(c2ccc(NS(=O)(=O)c3ccc([C@@H](C)CF)cc3)cc2)C1` [Example 59, 4-((R)-2-Fluoro-1-methyl-ethyl)-N-[4-(1-propyl-azetidin-3-yl)-phenyl]-benzenesulfonamide], the Ki was 6.41 nM in assay [1] and 1520 nM in assay [2]. Moreover, in assay [1], the “Ki(D2)*/Ki(D3)*” value was determined as 238.

As for `CCCN1CC(c2ccc(NS(=O)(=O)c3ccc([C@H](C)CF)cc3)cc2)C1` [Example 60, 4-((S)-2-Fluoro-1-methyl-ethyl)-N-[4-(1-propyl-azetidin-3-yl)-phenyl]-benzenesulfonamide], in assay [1], the Ki turned out to be 7.63 nM and the “Ki(D2)*/Ki(D3)*” value was determined as 1019. For the same molecule, in assay [2], the Ki was 7780 nM.

Regarding `CCCN1CC(c2ccc(NS(=O)(=O)c3ccc(CC(F)(F)F)cc3)cc2)C1` [Example 62, N-[4-(1-Propyl-azetidin-3-yl)-phenyl]-4-(2,2,2-trifluoro-ethyl)-benzenesulfonamide], in assay [1], the affinity corresponds to a Ki of 25.2 nM and the “Ki(D2)*/Ki(D3)*” value is listed as 141. In assay [2], the Ki came to 3540 nM.

For the molecule `CCCN1CC(c2ccc(NS(=O)(=O)c3ccc(C(C)C(F)(F)F)cc3)cc2)C1` (centres unmarked) [Example 63, N-[4-(1-Propyl-azetidin-3-yl)-phenyl]-4-(2,2,2-trifluoro-1-methyl-ethyl)benzenesulfonamide], in assay [1], the Ki worked out at 5.75 nM and the “Ki(D2)*/Ki(D3)*” value came out at 113. For the same molecule, the Ki in assay [2] worked out at 647 nM.

`CCCN1CC(c2ccc(NS(=O)(=O)c3ccc(C(C)C(F)F)cc3)cc2)C1` (centres unmarked) [Example 64, 4-(2,2-Difluoro-1-methyl-ethyl)-N-[4-(1-propyl-azetidin-3-yl)-phenyl]-benzenesulfonamide]: in assay [1], affinity was put at a Ki of 2.1 nM and the “Ki(D2)*/Ki(D3)*” value is recorded as 164. Further, the Ki in assay [2] was determined as 344 nM.

On to `CCCN1CC[C@@H](c2ccc(NS(=O)(=O)c3ccc(-c4csnn4)cc3)cc2)C1` [Example 65, N-[4-((S)-1-Propyl-pyrrolidin-3-yl)-phenyl]-4-[1,2,3]thiadiazol-4-yl-benzenesulfonamide], for which, in assay [1], the inhibition constant Ki came out at 6.79 nM and the “Ki(D2)*/Ki(D3)*” value is listed as 29. Moreover, the Ki in assay [2] was 197 nM.

Consider `CCCN1CC[C@@H](c2ccc(NS(=O)(=O)c3ccc(N4CCCC4)cc3)cc2)C1` [Example 67, N-[4-((S)-1-Propyl-pyrrolidin-3-yl)-phenyl]-4-pyrrolidin-1-yl-benzenesulfonamide], for which, in assay [1], the Ki was found to be 0.35 nM and the “Ki(D2)*/Ki(D3)*” value is listed as 11. Also, the Ki in assay [2] turned out to be 3.88 nM.

For the molecule `CCCN1CC[C@@H](c2ccc(NS(=O)(=O)c3ccc(SC(F)(F)F)cc3)cc2)C1` [Example 68, N-[4-((S)-1-Propyl-pyrrolidin-3-yl)-phenyl]-4-trifluoromethylsulfanyl-benzenesulfonamide], in assay [1], the Ki amounted to 3 nM and the “Ki(D2)*/Ki(D3)*” value stood at 47. In assay [2], the Ki came to 142 nM.

Take `CCCN1CC[C@@H](c2ccc(NS(=O)(=O)c3ccc(-n4cccn4)cc3)cc2)C1` [Example 69, N-[4-((S)-1-Propyl-pyrrolidin-3-yl)-phenyl]-4-pyrazol-1-yl-benzenesulfonamide]: in assay [1], the Ki is 2.51 nM and the “Ki(D2)*/Ki(D3)*” value came out at 36. In addition, the Ki in assay [2] stood at 90.3 nM.

The record behind these values is patent US8470810B2, “Heterocyclic compounds suitable for treating disorders that respond to modulation of the dopamine D3 receptor” (Abbott GmbH & Co. KG, priority 2004, dated 2013).
